Values of other authors in article PMC4240912, “Multifaceted interplay between lipophilicity, protein interaction and luminescence parameters of non-intercalative ruthenium(II) polypyridyl complexes controlling cellular imaging and cytotoxic properties” (Journal of Biological Inorganic Chemistry, 2014).
Like-named read-outs stand apart in the source and are kept apart here.

Details: aqueous solution, ref [11], cited from earlier work

SMILES: O=[N+]([O-])c1nccn1CCCc1ccnc(-c2ccccn2)c1.[Ru+2].c1ccc(-c2ccnc3c2ccc2c(-c4ccccc4)ccnc23)cc1.c1ccc(-c2ccnc3c2ccc2c(-c4ccccc4)ccnc23)cc1 [[Ru(dip)2(bpy-NitroIm)]^2+]
- τ, luminescence lifetime (air-equilibrated conditions): 810 ± 10 ns
- φ, quantum yield of luminescence (air-equilibrated conditions): 0.0103 ± 0.0004
- τ, luminescence lifetime (deoxygenated conditions): 1.91 ± 0.01 µs
- φ, quantum yield of luminescence (deoxygenated conditions): 0.0341 ± 0.0004
